Measured values reported in US5143938A, “Propanamines, their pharmacological properties and their application for therapeutic in particular antidiarrheal, purposes” (Jouveinal S.A., priority 1990, dated 1992).

What was measured:
[1] = Activity with respect to gastrointestinal transit in rats (semi-solid charcoal meal); format: in vivo; details: for Activity with respect to intestinal transit, percentage change relative to the controls / effect on intestinal transit, in words: 30 mg/kg oral; for Activity with respect to intestinal transit, percentage change relative to the controls: one hour before meal, positive = accelerated, negative = slowed down
Description: The test is carried out according to the technique described by Green A. F., J. Pharmacol., 1959, 14, 26-34. It consists in determining in rats the distance travelled in the animal's intestine by a semi-solid meal after a specified time.
The test products are administered orally one hour before gavage of the animal with a semi-solid meal containing vegetable charcoal as a tracer. 15 minutes after the administration, the animal is sacrificed and the distance travelled in the intestine by the meal is expressed in relation to the total length.
This ratio, for the treated animals, is compared with that observed in control animals receiving only the meal.
In this test, the products of the invention were administered on the basis of 30 mg/kg and the results expressed as a percentage change relative to the controls, the ratio being positive when transit is accelerated and negative when it is slowed down; […]

[2] = Antidiarrheal activity in rats: inhibition of castor oil-induced diarrhea; format: in vivo
Description: This test is performed by studying the activity of the test compounds with respect to the diarrheaphenomenon caused in animals by the administration of castor oil.
The method consists in administering the test product in solution orally, one hour before the administration, also oral, of 1.0 ml of castor oil per animal.
The animals are then observed, and the number of rats which emit liquid stools is determined on an all-or-nothing basis every hour during the seven hours following administration of the diarrheal agent.

[3] = mouse, in vivo
in vivo = details: mouse, po
[4] = Rattus norvegicus, po, 3 h; read-out: ED 50 at 3 h., antidiarrheal activity

Row | Compound | Activity with respect to intestinal transit, percentage change relative to the controls [1] | ED50 [2, 4] [mg/kg] | also measured
1 | CCC(CCC(=O)c1cc(OC)c(OC)c(OC)c1)(c1ccc(C)cc1)N(C)C (stereo not drawn) [Example 9.b.2, 4-N,N-dimethylamino-4-(4-methylphenyl)-1-(3,4,5-trimethoxyphenyl)-hexan-1-one] | -14% | 2 | 
2 | C=CCN(C)C(CC)(CCC(=O)c1ccccc1)c1ccccc1 (stereo not drawn) [Example 10, N-allyl-1,4-diphenyl-4-N-methylamino-hexan-1-one] | -6% | 24.2 | 
3 | CCC(CCC1(c2ccccc2)SCCS1)(c1ccccc1)N(C)C (stereo not drawn) [Example 12, 2-(3-N,N-dimethylamino-3-phenyl-pentan-1-yl)-2-phenyl-1,3-dithiolane] | -12% | 23.1 | 
4 | CCC(CCC(=O)c1cc(OC)c(OC)c(OC)c1)(c1ccc(C(F)(F)F)cc1)N(C)C (stereo not drawn) [Example 9.c, 4-N,N-dimethylamino-4-(4-trifluoromethvlphenvl)-1-(3,4,5-trimethoxyphenyl)-hexan-1-one] | +2% | 15 | effect on intestinal transit, in words [1]: zero
5 | CCC(CCC(=O)c1ccc(Cl)c(Cl)c1)(c1ccccc1)N(C)C (stereo not drawn) [Example 9.g, 1-(3,4-dichlorophenyl)-4-N,N-dimethylamino-4-phenyl-hexan-1-one] | -25% | 3 | 
6 | CN1CC[C@]23c4c5ccc(O)c4O[C@H]2[C@@H](O)C=C[C@H]3[C@H]1C5 [Morphine, reference compound] |  |  | ED50 slowing down transit by 50% ([1]; oral, dose at which activity is -50%): 10 mg/kg; ED 50 at 3 h., antidiarrheal activity ([2]; oral, one hour before 1.0 ml castor oil; inhibition of effect in 50% of animals at 3 h): 0.83 mg/kg
7 | CCC(CCC(=O)c1cc(OC)c(OC)c(OC)c1)(c1ccc(Cl)cc1)N(C)C (stereo not drawn) [Example 9.a, 4-(4-chlorophenyl)-4-N,N-dimethylamino-1-(3,4,5-trimethoxyphenyl)-hexan-1-one] | -15% | 6 | 
8 | CN(C)C(=O)C(CCN1CCC(O)(c2ccc(Cl)cc2)CC1)(c1ccccc1)c1ccccc1 [Loperamide, 4-(4-chlorophenyl)-4-hydroxy-N,N-dimethyl-α,α-diphenyl-1-piperidinebutanamide, reference compound] |  |  | ED50 ([1]; Rattus norvegicus, po, read-out: ED50 slowing down transit by 50%): 1.79 mg/kg; toxicity at the administration doses, in words [3]: too toxic; TD50 (in vivo): 75 mg/kg; ED50 ([2]; Rattus norvegicus, po, 3 h, read-out: ED 50 at 3 h., antidiarrheal activity): 0.2 mg/kg
9 | CCC(CCC1(c2cc(OC)cc(OC)c2)OCCO1)(NC)c1ccccc1 (stereo not drawn) [Example 3.c, 2-(3-N-methylamino-3-phenyl-pentan-1-yl)-2-(3,5-dimethoxyphenyl)-1,3-dioxolane] | -3% | 16 | effect on intestinal transit, in words [1]: zero
10 | CCC(CCC1(c2cc(OC)c(OC)c(OC)c2)OCCO1)(NC)c1ccc(C(F)(F)F)cc1 (stereo not drawn) [Example 3.f, 2-[3-N-Methylamino-3-(4-trifluoromethylphenyl)-pentan-1-yl]-2-(3,4,5-trimethoxyphenyl)-1,3-dioxolane] | -17% | 6 | 
